Like-named read-outs stand apart in the source and are kept apart here.
Experiment: log P determination by HPLC on reversed-phase columns (C 18), analogously to OECD Guideline 117
Format: physicochemical
Details: for logP (HCOOH): LC-MS in the acidic range, pH 2.7, 0.1% aqueous formic acid / acetonitrile; for logP (HCOOH) / logP (neutral): HPLC reversed-phase C 18; for logP (neutral): LC-MS in the neutral range, pH 7.8, 0.001 molar aqueous ammonium hydrogencarbonate / acetonitrile
Description: The log P values were determined analogously to OECD Guideline 117 (EC Directive 92/69/EEC) by HPLC (high-performance liquid chromatography) using reversed-phase columns (C 18), by the following methods:
[a] The LC-MS determination in the acidic range was effected at pH 2.7 with 0.1% aqueous formic acid and acetonitrile (contains 0.1% formic acid) as eluents; linear gradient from 10% acetonitrile to 95% acetonitrile. log P^[a] is also referred to as log P(HCOOH). [b] LC-MS determination in the neutral range was effected at pH 7.8 with 0.001 molar aqueous ammonium hydrogencarbonate solution and acetonitrile as eluents; linear gradient from 10% acetonitrile to 95% acetonitrile. log P^[…] is also referred to as log P(neutral).

[1] = reversed-phase C18 HPLC column, acidic range, pH 2.7, 0.1% aqueous formic acid and acetonitrile, read-out: log P[a] / log P(HCOOH)
[2] = reversed-phase C18 HPLC column, neutral range, pH 7.8, 0.001 molar aqueous ammonium hydrogencarbonate and acetonitrile, read-out: log P[b] / log P(neutral)
[3] = acidic range, pH 2.7, 0.1% aqueous formic acid and acetonitrile, read-out: log P[a] / log P(HCOOH)

SMILES | logP (HCOOH) | logP (neutral) | chromatographic logP [1] | also measured
Cc1cc(F)c(-n2c(=O)n(C3CC3)c(=O)n2C)cc1[S+]([O-])CC(F)(F)F (single isomer, unassigned) [Example 197] | 1.97 | 1.89 | – | –
CCn1[nH]c(=O)n(CC)c1=O [1,4-Diethyl-1,2,4-triazolidine-3,5-dione] | – | – | 0.14 | –
CCn1[nH]c(=O)n(-c2ccccc2)c1=O [1-Ethyl-4-phenyl-1,2,4-triazolidine-3,5-dione] | – | – | 0.91 | –
Cc1cc(F)c(NCC(C)O)cc1SCC(F)(F)F (stereo not drawn) [1-[2-Fluoro-4-methyl-5-(2,2,2-trifluoroethylsulfanyl)aniline]propan-2-ol] | – | – | 3.01 | –
Cn1[nH]c(=O)n(-c2cccc(C(F)(F)F)c2)c1=O [1-methyl-4-[3-(trifluoromethyl)phenyl]-1,2,4-triazolidine-3,5-dione] | – | – | 1.53 | –
Cc1cc(F)c(NC(=S)NCC(F)(F)F)cc1SCC(F)(F)F [1-{2-Fluoro-4-methyl-5-[(2,2,2-trifluoroethyl)sulfanyl]phenyl}-3-(2,2,2-trifluoroethyl)thiourea] | – | – | 3.32 | chromatographic logP [2]: 3.24
Cc1cc(F)c(NC(=O)OCCCl)cc1SCC(F)(F)F [2-Chloroethyl N-[2-fluoro-4-methyl-5-(2,2,2-trifluoroethylsulfanyl)phenyl]carbamate] | – | – | – | chromatographic logP [3]: 3.45
CC1(C)OB(c2cc(SCC(F)(F)F)c(Cl)cc2Cl)OC1(C)C [2-{2,4-Dichloro-5-[(2,2,2-trifluoroethyl)sulfanyl]phenyl}-4,4,5,5-tetramethyl-1,3,2-dioxaborolane] | – | – | 5.68 | chromatographic logP [2]: 5.31
Cc1cc(C)c(B2OC(C)(C)C(C)(C)O2)cc1SCC(F)(F)F [2-{2,4-Dimethyl-5-[(2,2,2-trifluoroethyl)sulfanyl]phenyl}-4,4,5,5-tetramethyl-1,3,2-dioxaborolane] | – | – | 5.75 | chromatographic logP [2]: 5.64
Cc1cc(F)c(B2OC(C)(C)C(C)(C)O2)cc1SCC(F)(F)F [2-{2-Fluoro-4-methyl-5-[(2,2,2-trifluoroethyl)sulfanyl]phenyl}-4,4,5,5-tetramethyl-1,3,2-dioxaborolane] | – | – | 4.91 | chromatographic logP [2]: 4.81
CC1(C)OB(c2ccc(Cl)c(SCC(F)(F)F)c2)OC1(C)C [2-{4-Chloro-3-[(2,2,2-trifluoroethyl)sulfanyl]phenyl}-4,4,5,5-tetramethyl-1,3,2-dioxaborolane] | – | – | 5.27 | chromatographic logP [2]: 5.16
COc1ccc(B2OC(C)(C)C(C)(C)O2)cc1SCC(F)(F)F [2-{4-Methoxy-3-[(2,2,2-trifluoroethyl)sulfanyl]phenyl}-4,4,5,5-tetramethyl-1,3,2-dioxaborolane] | – | – | 4.54 | chromatographic logP [2]: 4.46
Cc1cc(F)c(-n2c(=O)[nH]n(C)c2=O)cc1SCC(F)(F)F [4-[2-Fluoro-4-methyl-5-[(2,2,2-trifluoroethyl)sulfanyl]phenyl]-1-methyl-1,2,4-triazolidine-3,5-dione] | – | – | 2.02 | –
Cc1cc(F)c(-n2c(=S)n(C3CC3)c(=O)n2C)cc1SCC(F)(F)F [4-cyclopropyl-1-{2-fluoro-4-methyl-5-[(2,2,2-trifluoroethyl)sulfanyl]phenyl}-2-methyl-5-thioxo-1,2,4-triazolidin-3-one] | – | – | 3.24 | chromatographic logP [2]: 3.18
Cc1cc(F)c(-n2c(=O)[nH][nH]c2=O)cc1SCC(F)(F)F [4-{2-Fluoro-4-methyl-5-[(2,2,2-trifluoroethyl)sulfanyl]phenyl}-1,2,4-triazolidine-3,5-dione] | – | – | 1.82 | –
C=CCOC(=O)Nc1cc(SCC(F)(F)F)c(C)cc1F [Allyl N-[2-fluoro-4-methyl-5-(2,2,2-trifluoroethylsulfanyl)phenyl]carbamate] | – | – | – | chromatographic logP [3]: 3.59
CCOC(=O)NNC(=O)Nc1cc(SCC(F)(F)F)c(C)cc1F [Ethyl 2-({2-fluoro-4-methyl-5-[(2,2,2-trifluoroethyl)sulfanyl]phenyl}carbamoyl)hydrazinecarboxylate] | – | – | – | chromatographic logP [3]: 2.41
Cn1c(=O)n(C2CC2)c(=O)n1-c1cc(SCC(F)(F)F)c(F)cc1F [Example 71] | 2.67 | 2.62 | – | –
CCC(C)n1c(=O)n(C2CC2)c(=O)n1-c1cc(SCC(F)(F)F)c(C)cc1F (stereo not drawn) [Example 73] | 3.86 | 3.72 | – | –
Cc1cc(F)c(-n2c(=O)n(C)c(=O)n2-c2cc(F)c(C#N)cc2F)cc1SCC(F)(F)F [Example 78] | 3.40 | 3.29 | – | –
Cc1cc(F)c(-n2c(=O)n(C)c(=O)n2C2CCCC2)cc1SCC(F)(F)F [Example 86] | 3.75 | 3.67 | – | –
CCn1c(=O)n(CC)n(-c2ccc(C)c(SCC(F)(F)F)c2)c1=O [Example 100, 1,4-Diethyl-2-{4-methyl-3-[(2,2,2-trifluoroethyl)sulfanyl]phenyl}-1,2,4-triazolidine-3,5-dione] | – | – | 3.32 | chromatographic logP [2]: 3.29
Cc1cc(F)c(N2C(=O)C(=O)N(C3CC3)C2=O)cc1SCC(F)(F)F [Example 102] | 3.24 | – | – | –
Cc1cc(F)c(-n2c(=O)n(C3CC3)c(=O)n2C)cc1SCC(F)(F)F [Example 128] | 3.49 | 3.45 | – | –
Cc1cc(F)c(NC(=O)C(C)(C)O)cc1SCC(F)(F)F [N-[2-Fluoro-4-methyl-5-(2,2,2-trifluoroethylsulfanyl)phenyl]-2-hydroxy-2-methylpropanamide] | – | – | 2.81 | –
OB(O)c1ccc(Cl)c(SCC(F)(F)F)c1 [VIIIa-3, {4-Chloro-3-[(2,2,2-trifluoroethyl)sulfanyl]phenyl}boronic acid] | – | – | 2.4 | chromatographic logP [2]: 2.41

More lines, main results first:

logP (HCOOH) | logP (neutral) | chromatographic logP [1] | SMILES | also measured
3.40 | 3.35 | – | Cc1cc(F)c(-n2c(=O)n(C(C)C)c(=O)n2C(C)(C)C)cc1[S+]([O-])CC(F)(F)F (racemic) [Example 152] | –
2.95 | 3.04 | – | Cc1cc(F)c(-n2c(=O)n(C(C)C)c(=O)n2CC(F)(F)F)cc1[S+]([O-])CC(F)(F)F (racemic) [Example 153] | –
2.69 | 1.10 | – | Cc1cc(F)c(-n2[nH]c(=O)n(-c3cccc(C(F)(F)F)c3)c2=O)cc1[S+]([O-])CC(F)(F)F (racemic) [Example 158] | –
– | – | 1.51 | Cc1cc(C)c([S+]([O-])CC(F)(F)F)cc1N1CCNC1=O (stereo not drawn) [Example 4, 1-{2,4-Dimethyl-5-[(2,2,2-trifluoroethyl)sulfinyl]phenyl}imidazolidin-2-one] | chromatographic logP [2]: 1.52
2.73 | 2.68 | – | CCC(C)n1c(=O)n(C2CC2)c(=O)n1-c1cc([S+]([O-])CC(F)(F)F)c(C)cc1F (stereo not drawn) [Example 75] | –
– | – | 2.71 | CCn1c(=O)n(-c2ccccc2)c(=O)n1-c1cc([S+]([O-])CC(F)(F)F)c(C)cc1F (stereo not drawn) [Example 88, 1-Ethyl-2-{2-fluoro-4-methyl-5-[(2,2,2-trifluoroethyl)sulfinyl]phenyl}-4-phenyl-1,2,4-triazolidine-3,5-dione] | chromatographic logP [2]: 2.66
2.58 | 2.54 | – | CCn1c(=O)n(C(C)C)c(=O)n1-c1cc([S+]([O-])CC(F)(F)F)c(C)cc1F (stereo not drawn) [Example 93] | –
2.69 | 2.65 | – | Cc1cc(F)c(-n2c(=O)n(C(C)(C)C)c(=O)n2C)cc1[S+]([O-])CC(F)(F)F (stereo not drawn) [Example 95] | –
2.66 | 2.61 | – | Cc1cc(F)c(-n2c(=O)n(C)c(=O)n2C2C=CCCC2)cc1[S+]([O-])CC(F)(F)F (stereo not drawn) [Example 96] | –
– | – | 2.32 | Cc1cc(F)c(N2C(=O)C(=O)N(CC(F)F)C2=O)cc1[S+]([O-])CC(F)(F)F (stereo not drawn) [Example 103, 1-(2,2-Difluoroethyl)-3-{2-fluoro-4-methyl-5-[(2,2,2-trifluoroethyl)sulfinyl]phenyl}imidazolidine-2,4,5-trione] | chromatographic logP [2]: 0.87
– | – | 1.79 | Cc1cc(F)c(N2C(=O)OCC2C)cc1[S+]([O-])CC(F)(F)F (stereo not drawn) [Example 107, 3-[2-Fluoro-4-methyl-5-(2,2,2-trifluoroethylsulfinyl)phenyl]-4-methyloxazolidin-2-one] | –
– | – | 2.07 | CCn1c(=O)n(-c2cc([S+]([O-])CC(F)(F)F)c(C)cc2F)c(=O)n1CC (stereo not drawn) [Example 119, 1,2-Diethyl-4-{2-fluoro-4-methyl-5-[(2,2,2-trifluoroethyl)sulfinyl]phenyl}-1,2,4-triazolidine-3,5-dione] | –
4.08 | 4.07 | – | Cc1cc(F)c(-n2c(=O)n(C3CC3)c(=O)n2C(C)(C)C)cc1SCC(F)(F)F [Example 144] | –
3.85 | 3.90 | – | Cc1cc(F)c(-n2c(=O)n(C(C)C)c(=O)n2CC(F)(F)F)cc1SCC(F)(F)F [Example 146] | –
3.82 | 3.78 | – | CCn1c(=O)n(CC(C)C)n(-c2cc(SCC(F)(F)F)c(C)cc2F)c1=O [Example 148] | –
4.27 | 4.21 | – | Cc1cc(F)c(-n2c(=O)n(C(C)C)c(=O)n2CC(C)C)cc1SCC(F)(F)F [Example 149] | –
– | – | 2.05 | Cc1cc(F)c(N2C(=O)N(C)C(=O)C2(C)C)cc1[S+]([O-])CC(F)(F)F (stereo not drawn) [Example 216, 1-[2-Fluoro-4-methyl-5-(2,2,2-trifluoroethylsulfinyl)phenyl]-3,5,5-trimethylimidazolidine-2,4-dione] | –

Reference: patent publication US9981928B2, “Aryl sulfide derivatives and aryl sulfoxide derivatives as acaricides and insecticides” (BAYER CROPSCIENCE AKTIENGESELLSCHAFT, priority 2013, dated 2018)
